Several values for one entry are separate records, joined by “and”; a condition that tells them apart may be missing. Identical values can stand only once. Like-named read-outs stand apart in the source and are kept apart here.
Tests used:
Intracellular adenosine = assay: In vivo effect on adenosine levels in various rat tissues; design: species or system Fischer 344 rats
Method: Folinic acid (50 mg/kg) was administered intraperitoneally once daily for fourteen days. […] Hearts were removed from animals and flash frozen in liquid nitrogen with 10 s of death. Liver and lungs were removed en bloc and flash frozen with […]. Brain tissue was subsequently dissected.

HT-29 SF cells [1] = assay: DHEA effect on cell growth (Coulter counter); format: cell-based, human
HT-29 SF cells [2] = assay: DHEA effect on cell cycle distribution (flow cytometry); format: cell-based, human; settings: 25, 50 or 200 μM DHEA; 24, 48, 72 hours
Method: Cells were plated at 10^5/60-mm dish in duplicate. […] Cultures were trypsinized following 0, 24, 48, or 74 hours and fixed and stained using a modification of a procedure of Bauer et al., Cancer Res. 46, 3173-3178 (1986). Briefly, cells were collected by centrifugation and resuspended in cold phosphate-buffered saline. Cells were fixed in 70% ethanol, washed, and resuspended in phosphate-buffered saline.
After 24, 48, and 72 hours, cells were harvested, fixed in ethanol, and stained with propidium iodide, and the DNA content/cell was determined by flow cytometric analysis. The percentage of cells in G1, S, and G2M phases was calculated using the Cellfit cell cycle analysis program. S phase is marked by a quadrangle for clarity. Representative histograms from duplicate determinations are shown. The experiment was repeated three times.

HT-29 SF cells [3] = assay: Reversal of DHEA effect on cell cycle by medium supplements; format: cell-based, human; settings: 25 FM DHEA, with increasing exposure time
[4] = Particle size of jet-milled and spray-dried anhydrous DHEA-S (Malvern Mastersizer X, light microscope); format: physicochemical; settings: spray dried material, two batches
Method: Approximately 1 g sample was passed through the jet mill, once, and approximately 2 g sample were passed through the jet mill twice. […] The resulting solution was sonicated for 3 minutes and appeared fully dispersed. The dispersed solutions were tested on a Malvern Mastersizer X with a small volume sampler (SVS) attachment. One sample of dispersed material was tested 5 times. The median particle size or D (v, 0.5) of unmilled material was 52.56 μm and the % RSD (relative standard deviation) was 7.61 for the 5 values. The D (v, 0.5) for a single pass through the jet mill was 3.90 μm and the % RSD was 1.27, and the D (v, 0.5) from a double pass through the jet mill 3.25 μm and the % RSD was 3.10.
The solution was spray-dried with a B-191 Mini Spray-Drier (Buchi, Flawil, Switzerland) with an inlet temperature of 55° C., outlet temperature of 40° C., at 100% aspirator, at 10% pump, nitrogen flow at 40 mbar and spray flow at 600 units. The spray-dried product was suspended in hexane and Span85 surfactant added to reduce agglomeration. The dispersions were sonicated with cooling for 3-5 minutes for complete dispersion and the dispersed solutions tested on a Malvern Mastersizer X with a Small Volume Sampler (SVS) attachment. […] Visual examination by light microscope of the dispersions of each batch confirmed that spray drying produced small respirable size particles. […]

[5] = Nakagawa et al. 1981, 1982; cited from earlier work
[6] = Solid-state stability with and without lactose (DHEA formation by HPLC); format: physicochemical; settings: 1 week at 50° C., neat and lactose blend
Description: These conditions were used to stress the formulation in order to predict its long-term stability results. […] The primary degradant is DHEA. […] The materials on accelerated storage become more cohesive with time as evidenced by clumping during sample weighing for chemical analysis. […] This is a considerable disadvantage since lactose is the most commonly used inhalation excipient for dry powder formulations. Continuing with the virtually anhydrous form would mean limiting formulations to neat powder or undertaking more comprehensive safety studies to use a novel excipient.

late asthmatic response = assay: Late asthmatic response in patients dosed with DHEA-S; format: in vivo; settings: patients after five days of dosing
[7] = HPLC analysis of drug degradation during jet milling; format: physicochemical; settings: HPLC peak area versus unmilled standard; single-pass and double-pass
Method: Two vials (A; single-pass; 150 mg) and (B double-pass; 600 mg) of the micronized drug were available for determining drug degradation during jet milling micronization. […] The chromatographic peak area for the HPLC assay of the unmilled drug standard solution (10 mg/ml) gave a value of 23,427. […] The chromatographic peak areas for vials A and B were 11,979 and 11,677, respectively.

[8] = Short-term solution stability of DHEA-S formulation; format: physicochemical
Method: Aliquots of this solution are filled into clear glass vials and stored at RT (24-26° C.) and at 40° C. The samples are checked daily for DHEA-S content, DHEA content, and appearance. For each time point, duplicate samples are withdrawn and diluted from each vial. […] The study is stopped on day three. […] The solution should easily be stable for the day of reconstitution in a clinical trial. The following section describes the aerosol properties of this formulation.

[9] = for solubility: range of triplicates
Description: The suspensions are then filtered through a 0.2 micron syringe filter and immediately diluted for HPLC analysis. To prepare refrigerated samples, the syringes and filters are stored in the refrigerator for at least one hour before use.

[10] = 0.12% NaCl (20 mM Cl^-)
Method: The nebulizer is filled with 5 mL of solution and nebulization is continued until the output became visually insignificant (4½ to 5 min.). Nebulizer solutions are tested using a California Instruments AS-6 6-stage impactor with a USP throat. The impactor is run at 30 L/min for 8 s to collect a sample following one minute of nebulization time. At all other times during the experiment, the aerosol is drawn through the by-pass collector at approximately 33 L/min. The collection apparatus, nebulizer, and impactor are rinsed with mobile phase and assayed by HPLC. […] This volume is selected as the practical upper limit for use in a clinical study.

Nc1nc(=O)c2c([nH]1)NCC(CNc1ccc(C(=O)N[C@@H](CCC(=O)O)C(=O)O)cc1)N2C=O (mixture of isomers) [Folinic Acid, Folinic acid]
effect on adenosine levels when administered alone (Intracellular adenosine; rats, folinic acid 50 mg/kg alone, all organs studied): increase in adenosine levels for all organs studied
effect of coadministration on steroid-mediated adenosine depletion (Intracellular adenosine; rats, folinic acid 50 mg/kg coadministered with DHEA or methyltestosterone): completely abrogated steroid-mediated adenosine depletion

C[C@]12CC[C@H](O)CC1=CC[C@@H]1[C@@H]2CC[C@]2(C)C(=O)CC[C@@H]12 [DHEA, 3β-hydroxyandrost-5-en-17-one]
effect on tissue adenosine (in words) (Intracellular adenosine; rat, in vivo): multi-organ depletion of adenosine
effect on growth of HT-29 cells (in words) (HT-29 SF cells [1]; 0-200 μM, 0-72 hours): time- and dose-dependent inhibition of growth
exposure time after which cell number was reduced compared to controls (HT-29 SF cells [1]; 12.5 μM DHEA): 72 h
exposure time after which cell number was reduced compared to controls (HT-29 SF cells [1]; 25 μM DHEA): 48 h
exposure time after which cell number was reduced compared to controls (HT-29 SF cells [1]; 50 μM DHEA): 48 h
exposure time after which cell number was reduced compared to controls (HT-29 SF cells [1]; 200 μM DHEA): 24 h
cell cycle effect (overall, in words) (HT-29 SF cells [2]): G1 block in HT-29 SF cells in a time- and dose-dependent manner
proportion of cells in S phase (HT-29 SF cells [3]): progressively reduced the proportion of cells in S phase

C[C@]12CC[C@H](OS(=O)(=O)[O-])CC1=CC[C@@H]1[C@@H]2CC[C@]2(C)C(=O)CC[C@@H]12.[Na+] [Anhydrous DHEA-S]
mean particle size (Malvern Mastersizer X) [4]: 5.07±0.70 μm and 6.66±0.91 μm
mean particle size (light microscope) [4]: 2.4 μm and 2.0 μm
solid-state properties (in words) [5]: low crystallinity and is very hygroscopic

CC12CCC3C(CC=C4CC(OS(=O)(=O)[O-])CCC43C)C1CCC2=O.[Na+] (stereo not drawn) [DHEA-S dihydrate]
DHEA generated on storage (in words) [6]: virtually no DHEA generated

sodium dehydroepiandrostenone sulfate [DHEA-S]
reduction of the late asthmatic response (late asthmatic response): 33%
degradation of the drug during jet milling micronization [7]: no detectable degradation
stability of nebulizer formulation ([8]; 7.5 mg/mL of DHEA-S in 0.12% NaCl): stable for at least one day at RT
appearance of solution on storage ([8]; 10 mg/mL in 0.12% NaCl, 40° C. (accelerated condition)): became cloudy after two days of storage
solubility ([9]; 0.9% NaCl, refrigerated (7-8° C.)): 1100 to 1300 µg/mL
Ksp ([9]; 15° C., interpolated versus reciprocal of absolute temperature): ~1316 mM^2
equilibrium constant Ksp ([9]; refrigerated (7-8° C.), slope of solubility versus reciprocal sodium cation concentration): 665 mM^2
solubility ([9]; ~25° C., 0% NaCl): 16500 to 17400 µg/mL
highest solution concentration that will not precipitate during nebulization [10]: approximately 7.5 mg/mL
solid-state properties (in words) [5]: most stable and crystalline as the dihydrate form

— patent publication US20090263381A1, “COMBINATION OF DEHYDROEPIANDROSTERONE OR DEHYDROEPIANDROSTERONE-SULFATE WITH AN ANTI-IGE ANTIBODY FOR TREATMENT OF ASTHMA OR CHRONIC OBSTRUCTIVE PULMONARY DISEASE” (priority 2003, published 2009)
